The text below walks through data of PMC5301048, “Selection and early clinical evaluation of the brain‐penetrant 11β‐hydroxysteroid dehydrogenase type 1 (11β‐HSD1) inhibitor UE2343 (Xanamem™)” (British Journal of Pharmacology, 2017).

Like-named read-outs stand apart in the source and are kept apart here.

Series [1] is described as follows: Tissue exposure measurements in rats (plasma and brain). The conditions noted are these: rat. The series is classed as in vivo. As for the experimental part: The circulating plasma levels and tissue distribution of compounds were determined according to the method described in WO2011135276 (Webster et al., 2011a). Animals were group‐housed, had free access to food and water and were maintained in accordance with UK Home Office regulations. The animal work was conducted under UK Home Office Project Licence no. PPL 60/3915.
Compounds were prepared in 0.9% saline containing 2% DMSO (v^.v^‐1) and 38% PEG400 (v^.v^‐1) and administered to male Sprague Dawley rats by oral gavage such that the final concentration of compound was 10 mg·kg^−1. Rats (n = 3 per time point) were killed by decapitation at 1, 4 and 6 h post dosing, and trunk blood and tissues (liver, adipose and brain) were excised. Blood samples at 0.5 and 2 h post dosing were taken by a tail nick from the 4 and 6 h rats respectively.
Compounds were triple extracted from plasma (prepared from blood by a high speed centrifugation step) and spiked with 1 μg of a standard compound using ethyl acetate. Extracts were dried under nitrogen and re‐suspended in 60% methanol/40% ammonium acetate (5 mM).
A known weight of tissue was homogenized in 3 volumes of Krebs buffer. The compound was triple extracted with ethyl acetate from the supernatant of a low speed spin spiked with […] of a standard compound. Extracts were dried under nitrogen and re‐suspended in 60% methanol/40% ammonium acetate (5 mM).
Samples from plasma and tissue were analysed by TSQ Quantum Discovery Tandem Mass Spectrometer and Surveyor Liquid Chromatogram (Thermo, Hemel‐Hempstead, UK). Then 10 μL of each sample was injected in a mobile phase consisting of 60% methanol/40% ammonium acetate (5 mM) at a flow rate of 0.5 mL·min^−1. The column used was a BDS hypersil C18, 50 × 2.1 mm with a 5 μm particle size.
Each compound was tuned with a spray voltage of 3000 V and a capillary temperature of 300°C, and values for tube lens, CID and product ions were determined. The peak area for each compound and for the internal standard was determined, and the concentration of compound ^. g^‐1 of tissue or mL^‐1 of plasma was calculated by comparison of the peak area ratio to a standard curve.

The target in a further series is T1, CYP3A4 (Homo sapiens, UniProt P08684).
T1 construct: tissue Cyprotex Discovery Limited; host or cells: human liver microsomes
Kind of series: Cytochrome P450 inhibition, CYP3A4. The conditions noted are these: human liver microsomes; read-out: CYP450 isoform 3A4 IC50. The series is classed as in vitro ADME. As for the experimental part: Testing was performed by Cyprotex Discovery Limited, Cheshire, UK. Six test compound concentrations (0.4, 1, 4, 10, 40 and 100 μM; final DMSO concentration 0.25%, final microsome concentration 0.25 mg·mL^−1) were either pre‐incubated for 30 min in the absence and presence of NADPH or underwent a 0 min pre‐incubation with human liver microsomes. At the end of the pre‐incubation period, the probe substrate for each cytochrome P450 (CYP450) isoform (30 μM) and NADPH (1 mM) were then added (final DMSO concentration 0.3%), and the samples were incubated for 5 min at 37°C. Probe substrates were as follows: 1A2 – phenacetin, 2C9 – diclofenac, 2C19 – mephenytoin, 2D6 – dextromethorphan, 3A4 – midazolam and testosterone. Samples were subjected to LC–MS/MS analysis to determine metabolite concentrations. A decrease in the formation of the metabolite compared with vehicle control was used to calculate an IC50 value (test compound concentration which produces 50% inhibition) for each experimental condition.
(In general: Liver microsomes are a subcellular fraction often used to study metabolism.)

Series [2] deals with 29 enzymes and 72 receptors, including the glucocorticoid and mineralocorticoid receptors. Kind of series: Off-target diversity screen (data not shown). The conditions noted are these: in words.
The nature of series [3]: Clinical safety and tolerability in healthy subjects. The series is classed as in vivo, human. On the procedure:
A double‐blind, randomized, placebo‐controlled single ascending dose study was carried out at Simbec Research Ltd, Merthyr Tydfil, UK. Each cohort consisted of six healthy male subjects and two females of non‐child bearing potential. Two male ‘dose leader’ subjects (1 active : 1 placebo) were dosed first in each cohort. The remainder of the cohort (5 active : 1 placebo) were dosed 24 h later. Dose cohorts were 2, 5, 10, 18, 25 and 35 mg. Safety, pharmacokinetic and pharmacodynamic assessments were made at pre‐determined time‐points during each part of the study. Dose escalation was dependent upon satisfactory review of the blinded safety (up to Day 6) and pharmacokinetic (up to 24 h post‐dose) data from the preceding cohort.
A double‐blind, randomized, placebo‐controlled multiple ascending dose study was carried out at Linear Clinical Research Ltd, Nedlands, Australia. Each cohort consisted of eight healthy male subjects. Each subject received UE2343 or placebo twice daily (b.i.d ) (12 hourly) in the fed state for 9 days (Day 1 to Day 9) and once on the morning of Day 10 (19 doses in total). Dose cohorts were 10, 20 and 35 mg. Dose escalation and selection was dependent upon satisfactory review of the blinded safety (up to Day 17 ± 2) and plasma pharmacokinetics (up to Day 12) data from the preceding cohort. Safety, pharmacokinetic and pharmacodynamic assessments were made at pre‐determined time‐points during each part of the study.
A non‐randomized, open label, multiple dose phase I study to determine the pharmacokinetic parameters of UE2343 in CSF was carried out at Linear Clinical Research Ltd, Nedlands, Australia. Four healthy male subjects each received 35 mg UE2343 b.i.d (12 hourly) fed (30 min after the start of a standard meal) for 3 days (Day 1 to Day 3) and once on the morning of Day 4 (seven doses in total). Plasma pharmacokinetic samples were taken from each subject on Day 1 and Day 4. A single CSF sample was taken from each subject at 5 h post‐final dose on Day 4, corresponding to the plasma Tmax (time to maximum plasma concentration).
Laboratory evaluation of clinical safety parameters was carried out using standard validated methods. Measurement of plasma pharmacodynamic markers [adrenocorticotropic hormone (ACTH), cortisol, 4‐androstenedione, testosterone and dehydroepiandrosterone sulphate (DHEA‐s)] was carried out using commercially available kits. Each method was fully validated prior to analysis. Urinary steroid metabolites were measured according to established methods (Boonen et al., 2013). UE2343 levels in plasma, urine and CSF was determined by LC–MS/MS using fully validated methods.

The mark [4] stands for this setting: multiple ascending dose study, 24 subjects (active and placebo).
[5] abbreviates: multiple ascending dose study, in words.

T1 sequence (P08684 whole entry): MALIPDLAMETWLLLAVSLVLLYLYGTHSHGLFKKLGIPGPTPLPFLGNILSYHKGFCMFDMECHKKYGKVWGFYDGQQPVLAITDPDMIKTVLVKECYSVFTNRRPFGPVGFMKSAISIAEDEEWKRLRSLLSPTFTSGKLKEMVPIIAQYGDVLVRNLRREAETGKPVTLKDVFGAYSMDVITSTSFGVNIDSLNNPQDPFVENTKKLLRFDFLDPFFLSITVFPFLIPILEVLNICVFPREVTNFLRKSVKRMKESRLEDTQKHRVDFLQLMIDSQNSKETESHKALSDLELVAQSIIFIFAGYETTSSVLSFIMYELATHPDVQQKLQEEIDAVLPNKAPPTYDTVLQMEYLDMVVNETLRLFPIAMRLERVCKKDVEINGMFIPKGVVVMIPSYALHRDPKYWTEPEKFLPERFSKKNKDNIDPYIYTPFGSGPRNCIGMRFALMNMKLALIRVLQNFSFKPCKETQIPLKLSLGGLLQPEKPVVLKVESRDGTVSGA

As usually defined, the Cmax is the peak of the concentration-time curve. In general, IC50 refers to the concentration that inhibits the measured activity by half. On to `O=C(c1csc(-c2cn[nH]c2)c1)N1C2CCC1CC(O)(c1ncccn1)C2` (stereo not shown) [compound 4], for which, in series [1] (male, Sprague Dawley, brain (relative to free plasma), oral, 10 mg·kg^−1, rat plasma protein binding taken into account, read-out: brain : plasma free ratio), the Kp came out at 0.43. Further, the Kp in series [1] (male, Sprague Dawley, brain and plasma, 10 mg·kg^−1 oral gavage, read-out: Brain : plasma ratio) worked out at 0.11. Moreover, the maximum concentration (Cmax) in series [1] (male, Sprague Dawley, plasma, po, 10 mg/kg, 10 mg·kg^−1 oral gavage, mean ± SD) was determined as 1540 ± 657 ng/mL. Also, in series [1], the “level in brain as % of the free plasma concentration” value came to 43%. For the same molecule, the “Brain Cmax” value in series [1] (10 mg·kg^−1 oral gavage, mean ± SD) turned out to be 173 ± 80 ng/mL. The 50% inhibitory concentration (IC50) on CYP3A4 was more than 50 µM. Further, in series [2], the “off‐target profile in diversity screen” value is recorded as “clean off‐target profile”. For the same molecule, the safety and tolerability entry in series [3] (2 to 35 mg q.d and 10 to 35 mg b.i.d, in words) is “safe and well tolerated”. In series [3] (CSF study, 35 mg b.i.d, in words), the “intensity of TEAEs” value is reported as “mild to moderate”. Besides, the “increased alanine aminotransferase, subjects” value in series [3] (CSF study, four subjects, in words) is given as “a single subject”. In series [3] (setting [4]), the “diarrhoea, subjects” value is recorded as 2/24; the “headache (most common TEAE), subjects” value was 7/24; the “thrombophlebitis, subjects” value is recorded as 3/24. In addition, in series [3] (setting [5]), the “intensity of TEAEs” value is “mild or moderate” and the “serious TEAEs or TEAEs leading to withdrawal” value is given as “No serious TEAEs”. In addition, in series [3] (single ascending dose study), the “number of subjects with ≥1 TEAEs” value turned out to be 9.
